This is an account of results in ChEMBL document CHEMBL5154812, “Development of novel urea-based ATM kinase inhibitors with subnanomolar cellular potency and high kinome selectivity” (Eur J Med Chem, 2022).

Data set [1] deals with T1, Serine-protein kinase ATM (Homo sapiens, UniProt Q13315). In words: Inhibition of ATM (unknown origin) by FRET assay.
Data set [2] in a line: Thermodynamic solubility of compound in PBS at pH 7.4. In kind it is physicochemical. To be noted: read-out: Therm_solubility.
For data set [3], the target named is T1, Serine-protein kinase ATM. The data set is described as follows: Inhibition of ATM in human A549 cells assessed as reduction in etoposide-stimulated KAP1 phosphorylation by In-Cell-Western assay. In kind it is cell-based.
Data set [4] deals with Serine/threonine-protein kinase ATR (Homo sapiens) (UniProt Q13535). The data set is described as follows: Inhibition of ATR (unknown origin) assessed as residual activity at 1 uM relative to control.
Data set [5] deals with Serine/threonine-protein kinase mTOR (Homo sapiens) (UniProt P42345). The data set is described as follows: Inhibition of mTOR (unknown origin) assessed as residual activity at 1 uM relative to control.
Data set [6] deals with DNA-dependent protein kinase catalytic subunit (Homo sapiens) (UniProt P78527). The data set is described as follows: Inhibition of DNA-PK (unknown origin) assessed as residual activity at 1 uM relative to control.
The target in data set [7] is Leucine-rich repeat serine/threonine-protein kinase 2 (Homo sapiens) (UniProt Q5S007). In words: Inhibition of LRRK2 (unknown origin) assessed as residual activity at 1 uM relative to control.
Data set [8] concerns the target Phosphatidylinositol 4,5-bisphosphate 3-kinase catalytic subunit alpha isoform (Homo sapiens) (UniProt P42336). The data set is described as follows: Inhibition of PI3Kalpha (unknown origin) assessed as residual activity at 1 uM relative to control.
For data set [9], the target named is Phosphatidylinositol 4,5-bisphosphate 3-kinase catalytic subunit beta isoform (Homo sapiens) (UniProt P42338). The data set is described as follows: Inhibition of PI3Kbeta (unknown origin) assessed as residual activity at 1 uM relative to control.
Phosphatidylinositol 4,5-bisphosphate 3-kinase catalytic subunit beta isoform (Homo sapiens), sequence (P42338 whole entry, looked up, canonical isoform): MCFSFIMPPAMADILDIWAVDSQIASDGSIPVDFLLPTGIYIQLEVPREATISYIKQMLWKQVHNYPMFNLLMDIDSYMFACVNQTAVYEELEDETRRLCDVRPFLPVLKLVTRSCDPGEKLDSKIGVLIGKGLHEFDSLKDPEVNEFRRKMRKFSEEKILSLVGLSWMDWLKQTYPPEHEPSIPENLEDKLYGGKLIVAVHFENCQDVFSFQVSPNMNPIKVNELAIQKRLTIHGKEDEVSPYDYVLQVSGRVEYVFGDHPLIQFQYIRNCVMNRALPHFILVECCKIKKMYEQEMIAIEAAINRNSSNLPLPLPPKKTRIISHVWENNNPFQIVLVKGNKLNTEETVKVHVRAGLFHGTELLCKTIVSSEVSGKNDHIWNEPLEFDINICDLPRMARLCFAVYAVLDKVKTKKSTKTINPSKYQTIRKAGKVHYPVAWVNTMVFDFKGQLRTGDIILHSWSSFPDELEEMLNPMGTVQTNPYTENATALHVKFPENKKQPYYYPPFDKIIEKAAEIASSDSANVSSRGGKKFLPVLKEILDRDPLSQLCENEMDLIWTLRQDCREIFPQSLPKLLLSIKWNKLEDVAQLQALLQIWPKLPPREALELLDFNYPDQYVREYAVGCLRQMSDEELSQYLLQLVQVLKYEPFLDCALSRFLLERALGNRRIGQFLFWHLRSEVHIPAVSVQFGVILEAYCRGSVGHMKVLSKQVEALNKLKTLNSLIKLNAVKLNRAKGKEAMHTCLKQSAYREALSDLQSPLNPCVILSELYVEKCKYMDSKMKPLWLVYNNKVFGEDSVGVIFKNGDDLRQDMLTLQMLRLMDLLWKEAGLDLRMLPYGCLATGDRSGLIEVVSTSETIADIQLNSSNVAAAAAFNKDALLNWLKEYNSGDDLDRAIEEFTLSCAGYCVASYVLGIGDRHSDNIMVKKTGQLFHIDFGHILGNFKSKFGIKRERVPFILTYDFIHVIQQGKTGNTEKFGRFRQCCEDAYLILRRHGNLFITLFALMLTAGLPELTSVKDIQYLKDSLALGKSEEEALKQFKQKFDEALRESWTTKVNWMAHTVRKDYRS
Data set [10] deals with T2, Phosphatidylinositol 4,5-bisphosphate 3-kinase catalytic subunit delta isoform (Homo sapiens) (UniProt O00329).
T2 sequence (whole entry): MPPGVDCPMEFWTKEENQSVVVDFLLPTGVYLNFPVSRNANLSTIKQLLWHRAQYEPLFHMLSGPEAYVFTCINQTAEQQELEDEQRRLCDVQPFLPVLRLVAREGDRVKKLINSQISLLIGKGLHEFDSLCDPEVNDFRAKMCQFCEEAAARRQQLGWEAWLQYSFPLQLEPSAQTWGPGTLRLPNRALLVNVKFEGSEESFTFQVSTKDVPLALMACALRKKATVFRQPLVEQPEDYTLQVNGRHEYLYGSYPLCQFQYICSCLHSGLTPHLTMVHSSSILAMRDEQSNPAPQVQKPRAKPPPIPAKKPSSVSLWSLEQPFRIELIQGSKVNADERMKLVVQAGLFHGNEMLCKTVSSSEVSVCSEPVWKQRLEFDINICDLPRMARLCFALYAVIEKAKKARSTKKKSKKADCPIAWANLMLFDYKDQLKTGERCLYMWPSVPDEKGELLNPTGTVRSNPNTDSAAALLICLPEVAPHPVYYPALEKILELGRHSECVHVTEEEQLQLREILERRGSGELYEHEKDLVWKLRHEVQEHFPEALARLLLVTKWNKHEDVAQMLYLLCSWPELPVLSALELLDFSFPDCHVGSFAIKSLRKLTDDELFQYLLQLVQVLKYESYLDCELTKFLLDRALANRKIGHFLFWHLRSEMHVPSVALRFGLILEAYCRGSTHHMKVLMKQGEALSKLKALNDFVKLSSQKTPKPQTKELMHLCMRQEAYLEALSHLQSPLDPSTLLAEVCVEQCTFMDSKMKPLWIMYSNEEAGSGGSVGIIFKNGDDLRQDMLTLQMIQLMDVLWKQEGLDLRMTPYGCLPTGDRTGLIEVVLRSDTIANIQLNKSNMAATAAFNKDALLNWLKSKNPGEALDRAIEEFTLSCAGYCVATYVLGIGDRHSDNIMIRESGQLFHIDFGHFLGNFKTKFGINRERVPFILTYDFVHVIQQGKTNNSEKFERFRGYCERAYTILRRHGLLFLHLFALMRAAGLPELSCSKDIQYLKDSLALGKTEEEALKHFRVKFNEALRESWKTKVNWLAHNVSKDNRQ
The data set is described as follows: Inhibition of PI3Kdelta (unknown origin) assessed as residual activity at 1 uM relative to control.

The target of data set [11] is Phosphatidylinositol 4,5-bisphosphate 3-kinase catalytic subunit gamma isoform (Homo sapiens) (UniProt P48736). In words: Inhibition of PI3Kgamma (unknown origin) assessed as residual activity at 1 uM relative to control.
Data set [12] in a line: Metabolic stability in mouse liver microsomes assessed as parent compound remaining after 120 mins.
For the next data set, the species on record is Homo sapiens. The data set is described as follows: Selectivity ratio for inhibition of ATR (unknown origin) to inhibition of ATM (unknown origin).

≈ marks a conversion by molar mass, not a printed value.

T1 sequence (Q13315 whole entry): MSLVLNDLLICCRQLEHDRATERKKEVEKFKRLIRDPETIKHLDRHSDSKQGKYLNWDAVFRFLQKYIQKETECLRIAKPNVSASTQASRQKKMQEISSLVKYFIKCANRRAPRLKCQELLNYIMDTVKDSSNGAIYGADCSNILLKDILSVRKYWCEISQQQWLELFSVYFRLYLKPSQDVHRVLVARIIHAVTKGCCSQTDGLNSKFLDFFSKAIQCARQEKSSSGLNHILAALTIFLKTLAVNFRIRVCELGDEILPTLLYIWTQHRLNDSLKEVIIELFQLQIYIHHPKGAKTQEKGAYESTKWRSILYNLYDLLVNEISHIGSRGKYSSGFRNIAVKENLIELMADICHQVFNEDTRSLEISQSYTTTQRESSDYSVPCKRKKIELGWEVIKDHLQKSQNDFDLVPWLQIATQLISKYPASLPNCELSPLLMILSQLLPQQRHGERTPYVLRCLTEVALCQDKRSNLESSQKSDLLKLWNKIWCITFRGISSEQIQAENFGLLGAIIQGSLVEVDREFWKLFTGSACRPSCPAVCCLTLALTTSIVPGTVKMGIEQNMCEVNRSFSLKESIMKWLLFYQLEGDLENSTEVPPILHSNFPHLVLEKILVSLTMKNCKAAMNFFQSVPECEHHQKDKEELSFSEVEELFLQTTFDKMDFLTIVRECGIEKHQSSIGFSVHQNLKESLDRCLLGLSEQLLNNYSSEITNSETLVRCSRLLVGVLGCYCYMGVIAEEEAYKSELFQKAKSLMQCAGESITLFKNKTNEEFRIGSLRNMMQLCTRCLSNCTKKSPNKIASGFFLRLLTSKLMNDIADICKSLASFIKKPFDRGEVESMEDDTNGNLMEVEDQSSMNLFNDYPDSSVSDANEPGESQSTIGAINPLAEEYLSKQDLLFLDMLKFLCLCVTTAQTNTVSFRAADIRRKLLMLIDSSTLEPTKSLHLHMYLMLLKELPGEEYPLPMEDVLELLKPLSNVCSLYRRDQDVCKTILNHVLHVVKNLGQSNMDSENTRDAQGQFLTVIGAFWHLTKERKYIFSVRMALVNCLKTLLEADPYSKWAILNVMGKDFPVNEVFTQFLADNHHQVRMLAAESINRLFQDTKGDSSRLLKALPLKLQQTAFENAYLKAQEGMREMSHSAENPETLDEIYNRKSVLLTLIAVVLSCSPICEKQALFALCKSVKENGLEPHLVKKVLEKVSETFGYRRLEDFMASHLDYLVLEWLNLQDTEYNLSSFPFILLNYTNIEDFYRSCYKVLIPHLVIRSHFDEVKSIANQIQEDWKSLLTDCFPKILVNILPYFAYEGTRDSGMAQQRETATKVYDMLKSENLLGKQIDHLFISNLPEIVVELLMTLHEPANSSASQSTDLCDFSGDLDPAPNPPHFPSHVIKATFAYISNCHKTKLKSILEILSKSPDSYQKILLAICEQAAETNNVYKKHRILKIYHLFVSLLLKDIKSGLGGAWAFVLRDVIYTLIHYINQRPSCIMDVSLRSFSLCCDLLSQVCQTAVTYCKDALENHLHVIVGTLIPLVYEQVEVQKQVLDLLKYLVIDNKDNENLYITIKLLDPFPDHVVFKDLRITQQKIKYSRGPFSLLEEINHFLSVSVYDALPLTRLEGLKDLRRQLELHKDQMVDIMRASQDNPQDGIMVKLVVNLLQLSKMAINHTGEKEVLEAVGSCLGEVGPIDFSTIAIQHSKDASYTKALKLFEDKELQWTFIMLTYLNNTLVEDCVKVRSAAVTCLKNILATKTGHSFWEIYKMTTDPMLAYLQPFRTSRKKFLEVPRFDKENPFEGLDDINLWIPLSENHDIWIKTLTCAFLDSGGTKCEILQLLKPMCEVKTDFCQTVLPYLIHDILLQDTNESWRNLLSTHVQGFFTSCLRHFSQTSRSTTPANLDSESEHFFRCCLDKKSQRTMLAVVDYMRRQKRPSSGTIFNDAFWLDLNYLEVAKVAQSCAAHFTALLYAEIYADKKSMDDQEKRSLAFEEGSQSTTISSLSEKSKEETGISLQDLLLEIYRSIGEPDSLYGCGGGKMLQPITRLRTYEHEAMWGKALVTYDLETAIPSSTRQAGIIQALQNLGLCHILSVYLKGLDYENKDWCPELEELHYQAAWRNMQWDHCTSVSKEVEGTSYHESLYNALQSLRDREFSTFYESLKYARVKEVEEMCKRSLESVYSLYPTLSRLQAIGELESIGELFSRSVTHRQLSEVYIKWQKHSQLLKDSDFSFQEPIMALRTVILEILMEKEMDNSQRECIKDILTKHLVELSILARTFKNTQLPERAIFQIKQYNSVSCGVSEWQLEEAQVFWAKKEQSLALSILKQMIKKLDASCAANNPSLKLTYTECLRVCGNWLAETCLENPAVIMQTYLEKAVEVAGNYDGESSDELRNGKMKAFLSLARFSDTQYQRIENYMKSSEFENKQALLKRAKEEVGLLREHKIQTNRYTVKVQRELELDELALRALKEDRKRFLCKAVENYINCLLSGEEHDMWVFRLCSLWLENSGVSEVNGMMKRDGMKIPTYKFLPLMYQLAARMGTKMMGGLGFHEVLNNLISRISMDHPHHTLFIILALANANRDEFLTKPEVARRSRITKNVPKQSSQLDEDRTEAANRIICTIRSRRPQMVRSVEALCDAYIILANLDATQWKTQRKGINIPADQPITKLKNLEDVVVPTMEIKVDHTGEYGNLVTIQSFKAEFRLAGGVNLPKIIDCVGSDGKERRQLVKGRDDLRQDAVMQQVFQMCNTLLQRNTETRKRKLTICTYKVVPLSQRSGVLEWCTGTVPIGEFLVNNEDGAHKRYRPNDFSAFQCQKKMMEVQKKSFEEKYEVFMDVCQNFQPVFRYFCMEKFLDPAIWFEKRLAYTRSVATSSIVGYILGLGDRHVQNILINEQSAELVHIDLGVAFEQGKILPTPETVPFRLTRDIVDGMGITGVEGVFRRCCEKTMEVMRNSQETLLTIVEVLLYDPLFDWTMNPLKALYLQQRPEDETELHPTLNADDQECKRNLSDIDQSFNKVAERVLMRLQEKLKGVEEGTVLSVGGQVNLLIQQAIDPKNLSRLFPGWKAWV

With `COCCn1c(=O)n(C)c2cnc3ccc(-c4ccc(NC(=O)N5C[C@@H]6C[C@H]5CN6C)cc4)cc3c21`, the half-inhibitory concentration (IC50) (as a rule, the concentration that gives 50% inhibition) in [1] came to 25 nM.
On to `CN(C)CCNC(=O)Nc1ccc(-c2ccc3ncc4c(c3c2)n(C2CCOCC2)c(=O)n4C)cn1`, for which the IC50 in data set [1] is < 1 nM. In addition, in [2], the solubility thermodynamic came out at 36 µM (≈ 17.6 µg/mL).
With `COCCn1c(=O)n(C)c2cnc3ccc(-c4ccc(NC(=O)N5CCN(C)CC5)cc4F)cc3c21`, the IC50 in data set [1] is 101 nM.
The same measure, in the same setting: then `COCCn1c(=O)n(C)c2cnc3ccc(-c4ccc(NC(=O)NC5CN(C)C5)cc4)cc3c21`, with < 1 nM.
As to `COCCn1c(=O)n(C)c2cnc3ccc(-c4ccc(NC(=O)NCCN(C)C)cc4)cc3c21`, the IC50 in [1] is < 1 nM; in data set [3], 1.7 nM. Besides, the solubility thermodynamic in [2] was found to be 1570 µM (≈ 726 µg/mL).
`COCCn1c(=O)n(C)c2cnc3ccc(-c4ccc(NC(=O)N5CCN(C)CC5)c(F)c4)cc3c21` returned an IC50 in data set [1] of 394 nM.
Still for that read-out and setting: the same measure for `COCCn1c(=O)n(C)c2cnc3ccc(-c4ccc(NC(=O)N5CCC(N(C)C)CC5)cc4)cc3c21`: 945 nM.
As for `COCCn1c(=O)n(C)c2cnc3ccc(-c4ccc(NC(=O)NCCN(C)C)c(F)c4)cc3c21`, the values for the IC50 in [1] and in data set [3] were < 1 nM and 0.71 nM, respectively. The Activity amounted to 104% in data set [4]; 4% in data set [5]; 8% in data set [6]; 92% in [7]; 28% in data set [8]; 87% in [9]. Further, the values for the Activity in [10] and in data set [11] were 35% and 80%, respectively. The share remaining (commonly what is left of the initial amount, in per cent) at 2 h in [12] was 78%. In addition, the Selectivity ratio in the data set filed under Homo sapiens was > 1000.
As to `COCCn1c(=O)n(C)c2cnc3ccc(-c4ccc(NC(=O)NCCN(C)C)c(C)c4F)cc3c21`, it took 37 nM to reach half-maximal inhibition in [1] (IC50).
In the case of `COCCn1c(=O)n(C)c2cnc3ccc(-c4ccc(NC(=O)NCCN5CCC5)cc4)cc3c21`, the IC50 is < 1 nM in data set [1] and 0.92 nM in data set [3].
As for `CN(C)CCCOc1ccc(-c2ccc3ncc4c(c3c2)n(C2CCOCC2)c(=O)n4C)cn1`, the solubility thermodynamic in data set [2] stood at 2970 µM (≈ 1370 µg/mL).
On to `COCCn1c(=O)n(C)c2cnc3ccc(-c4ccc(NC(=O)N5CCC(NC(=O)OC(C)(C)C)CC5)cc4)cc3c21`, for which it took 2 nM to reach half-maximal inhibition in data set [1] (IC50).
As for `COCCn1c(=O)n(C)c2cnc3ccc(-c4ccc(NC(=O)N5CCN(C(C)C)CC5)cc4)cc3c21`, the IC50 in data set [1] amounted to 158 nM.
Same read-out and setting: the same measure for `COCCn1c(=O)n(C)c2cnc3ccc(-c4ccc(NC(=O)NC(C)CN(C)C)cc4)cc3c21` (stereo not given): < 1 nM; for `COCCn1c(=O)n(C)c2cnc3ccc(-c4ccc(NC(=O)NC5CCNCC5)cc4)cc3c21`: < 1 nM; for `COCCn1c(=O)n(C)c2cnc3ccc(-c4ccc(NC(=O)N5CCN(C)CC5)c(F)c4F)cc3c21`: 212 nM.
As for `COCCn1c(=O)n(C)c2cnc3ccc(-c4ccc(NC(=O)NC5CCCN(C)C5)cc4)cc3c21` (stereo not given), the IC50 in data set [1] was < 1 nM.
Regarding `CCN1CCN(C(=O)Nc2ccc(-c3ccc4ncc5c(c4c3)n(CCOC)c(=O)n5C)cc2)CC1`, the IC50 in data set [1] was 159 nM.
Consider `COCCn1c(=O)n(C)c2cnc3ccc(-c4ccc(NC(=O)N5CCC(N)CC5)cc4)cc3c21`, for which 16 nM corresponded to half-maximal inhibition in data set [1] (IC50).
With `CN(C)CCNC(=O)Nc1ccc(-c2ccc3ncc4c(c3c2)n(C2CCOCC2)c(=O)n4C)cc1`, the 50% inhibitory concentration (IC50) in [1] is < 1 nM. The solubility thermodynamic in data set [2] is 39 µM (≈ 19.1 µg/mL).
Turning to `COCCn1c(=O)n(C)c2cnc3ccc(-c4ccc(NC(=O)N(C)CCN(C)C)cc4)cc3c21`, the IC50 in [1] is < 1 nM; in [3] it was 1.33 nM.
In [1], `COCCn1c(=O)n(C)c2cnc3ccc(-c4ccc(NC(=O)N5CCN(C)CC5)c(C)c4F)cc3c21` yielded an IC50 of 1580 nM.
On the same count and under the same terms, the same measure for `COCCn1c(=O)n(C)c2cnc3ccc(-c4ccc(NC(=O)NCCN(C)C)c(F)c4Cl)cc3c21`: 32 nM; for `COCCn1c(=O)n(C)c2cnc3ccc(-c4ccc(NC(=O)NC5CCN(C(=O)OC(C)(C)C)CC5)cc4)cc3c21`: < 1 nM.
Consider `COCCn1c(=O)n(C)c2cnc3ccc(-c4ccc(NC(=O)NCCN5CC(F)C5)cc4)cc3c21`, for which the results for the IC50 in data set [1] and in data set [3] were < 1 nM and 0.32 nM, respectively. Further, the Activity in data set [4] is 109%; in data set [5], -1%; in data set [6], -4%; in [7] it was 87%; in [8] it was -11%; in data set [9], 42%. The Activity in data set [10] came out at 23%; in [11] it was 34%. In [12], the fraction remaining at 2 h was 50%. Also, in the data set filed under Homo sapiens, the Selectivity ratio is > 1000.
As to `COCCn1c(=O)n(C)c2cnc3ccc(-c4ccc(NC(=O)NCCN(C)C)cc4F)cc3c21`, the half-inhibitory concentration (IC50) in data set [1] is < 1 nM; in data set [3], 0.65 nM.
On to `COCCn1c(=O)n(C)c2cnc3ccc(-c4ccc(NC(=O)NC5CCN(C)C5)cc4)cc3c21` (stereo not given), for which, in [1], the IC50 is < 1 nM.
`COCCn1c(=O)n(C)c2cnc3ccc(-c4ccc(NC(=O)N5CCN(C)CC5)c(F)c4Cl)cc3c21` came in with an IC50 in data set [1] of 885 nM.
Still for that read-out and setting: then `COCCn1c(=O)n(C)c2cnc3ccc(-c4ccc(NC(=O)N5CCN(C)CC5)cc4)cc3c21`, with 78 nM.
With `COCCn1c(=O)n(C)c2cnc3ccc(-c4ccc(NC(=O)NCCN5CC(F)(F)C5)cc4)cc3c21`, the IC50 in data set [1] was < 1 nM; in data set [3] it was 3.31 nM.
